Structures can show the parent of a compound that is named as a salt.
Assays:
[1] = tested on: collagen-induced arthritis (CIA) in mice; test: Antibody-mediated collagen-induced arthritis in mice; format: in vivo; conditions: 20 mg/kg i.p. twice daily
Procedure: The murine CIA model used in this study is called antibody-mediated CIA, and can be induced by i.v. injection of a combination of different anti-type II collagen monoclonal antibodies (Terato K., et al. (1995). Autoimmunity. 22:137).
In this example, arthrogen-collagen-induced arthritis antibody kits were purchased from Chemicon International (Temecula, Calif.) and arthritis was induced using the manufacturer's protocol. Mice were injected i.v. with a cocktail of 4 anti-collagen Type II monoclonal antibodies (0.5 mg each) on day 0, followed by i.p. injection of 25 μg lipopolysaccharide (LPS) on day 2. Mice develop swollen wrists, ankles, and digits 3-4 days after LPS injection, with disease incidence of 90% by day 7. Severity of arthritis in each limb was scored for 12 days as follows: 0=normal; 1=mild redness, slight swelling of ankle or wrist; 2=moderate redness and swelling of ankle or wrist; 3=severe redness and swelling of some digits, ankle and paw; 4=maximally inflamed limb. Animals were divided in 3 groups of 6 animals: vehicle, methotrexate (MTX)-treated, and compound-treated. Animals in the vehicle group were injected i.p. with phosphate buffer saline (PBS), twice daily for 12 days (starting on day 0). MTX (3 mg/kg) was administered i.p. starting on day 0 and continuing every other day (Mon., Weds., Fri.) for the duration of the experiment.
For each of the two sets of data (arthritis score and paw swelling), a repeated measure analysis was performed to assess the treatment effect.
The relative RT-PCR approach was used. To perform this experiment, a kit from Ambion (USA) was used that employs 18S ribosomal RNA (rRNA) as an internal control. In addition to the rRNA primers, the kit also provides specific primers for the amplification of the different cytokines to be analyzed. […] At the end of the study, animals were euthanized and the right hind paws were extracted and frozen. Total RNA was isolated using 1 ml of Trizol reagent (Invitrogen, USA) per 50-100 mg tissue according to the manufacturer's instructions. […]

EAE in C57BL/6 mice = test: Experimental autoimmune encephalomyelitis (EAE), MOG 35-55; format: in vivo; conditions: separate experiment, same protocol, FIG. 3
Procedure: SSAO/VAP-1 is expressed on the endothelium of inflamed tissues/organs including brain and spinal cord. Its ability to support lymphocyte transendothelial migration may be an important systemic function of SSAO/VAP-1 in inflammatory diseases such as multiple sclerosis and Alzheimer's disease. An analysis of the use of SSAO inhibitors to treat inflammatory disease of the central nervous system (CNS) was performed through the use of an experimental autoimmune encephalomyelitis model (EAE) in C57BL/6 mice. EAE in rodents is a well-characterized and reproducible animal model of multiple sclerosis in human (Benson J. M. et al. (2000) J. Clin. Invest. 106:1031). Multiple sclerosis is a chronic immune-mediated disease of the CNS characterized by pachy perivenular inflammatory infiltrates in areas of demyelination and axonal loss. As an animal model, EAE can be induced in mice by immunization with encephalitogenic myelin antigens in the presence of adjuvant. The pathogenesis of EAE comprises presentation of myelin antigens to T cells, migration of activated T cells to the CNS, and development of inflammation and/or demyelination upon recognition of the same antigens.
Thirty female C57BL/6 mice were immunized subcutaneously (s.c). with myelin oligodendrocyte glycoprotein 35-55 (MOG peptide 35-55) in Complete Freund Adjuvant (CFA) on day 0, followed by i.p. injections of pertussis toxin (one pertussis toxin injection on day 0, a second pertussis toxin injection on day 2). Groups of 10 mice received either the allylamine compound mofegiline (AA, 10 mg/kg/dose, twice daily for 18 consecutive days), methotrexate (2.5 mg/kg/day, every other day (Mon., Weds., Fri.) till day 18) or vehicle control (twice/day for 18 consecutive days) all-starting from one day after the immunization and all administered i.p. Then animals were monitored for body weight, signs of paralysis and death according to a 0-5 scale of scoring system as follows: 1=limp tail or waddling gait with tail tonicity; 2=waddling gait with limp tail (ataxia); 2.5=ataxia with partial limb paralysis; 3=full paralysis of one limb; 3.5=full paralysis of one limb with partial paralysis of second limb; 4=full paralysis of two limbs; 4.5=moribund; 5=death. Results are shown in FIG. 2A, FIG. 2B, and FIG. 2C. […] (p=0.04 by repeated measure analysis to assess the treatment effect. Proper polynomial transformation, with the spacing corresponding to the collection days, was applied to test the time effect). Statistically significant differences in diseases severity between the AA and vehicle-treated groups, continued even after stopping compound administration and were observed until the end of the study (d25) .

[2] = tested on: carrageenan-induced paw edema in Sprague Dawley rats; test: Carrageenan-induced rat paw edema; format: in vivo; conditions: for paw swelling: 100 mg/kg i.p. 15 minutes prior to carrageenan, 60, 120, 180 min, p<0.05
Procedure: Female Sprague Dawley rats were used and compounds of the invention were injected i.p. at 100 mg/kg 15 minutes prior to carrageenan exposure. The control group was injected with an equal volume of vehicle (PBS). Edema in the paws was induced as previously described by injecting 50 μl of a 0.5% solution of carrageenan (Type IV Lambda, Sigma) in saline with a 27-G needle s.c. in the right foot pat. (See Whiteley P. E. and Dalrymple S. A. (1998) Models of inflammation: carrageenan-induced paw edema in the rat, in Current Protocols in Pharmacology. Enna S J, Williams M, Ferkany J W, Kenaki T, Porsolt R E and Sullivan J P, eds., pp 5.4.1-5.4.3, John Wiley & Sons, New York) The size of the tested foot of each animal was measured volumetrically, before induction of edema, and at 60, 120, and 180 min after carrageenan induction.
Briefly, SSAO inhibitors (30 mg/kg), indomethacin (3 mg/kg) and PBS were administered orally to rats 1 hour after carrageenan injections.
To investigate further the role of SSAO inhibition in the inflammatory response, studies were carried out to assess the effect of SSAO inhibition on prostaglandin E2 (PGE2) levels. Animals were divided into four therapeutic groups of eight rats each. […] The fourth group received 3 mg/kg of dexamethasone, i.p. 1 hour before paw inflammation. Three hours after carrageenan injection, rats were asphyxiated with CO2 and their hind paws removed. The paws were lacerated with a scalpel, suspended off the bottom of a polypropylene 1.5 ml tube with a micropipette tip and centrifuged to express the inflammatory fluid. The volume collected from each paw was determined and the fluid was analyzed by ELISA for PGE2 production using a commercial kit (R&D Systems, Minneapolis, Minn.) according to the manufacturer's instructions. […] Data were analyzed with GraphPad Prism software (San Diego, Calif.) by Dunnett's test following analysis of variance.

[3] = tested on: adhesion of human PBMCs to rat HEC transfected with full-length human SSAO/VAP-1; test: In vitro adhesion of PBMCs to SSAO/VAP-1-transfected high endothelial cells; format: cell-based; conditions: inhibitors at IC100 concentrations, antibody 10 μg/ml; 3 hr at 37° C.
Procedure: The studies in this Example were carried out in order to determine whether SSAO/VAP-1 transfected into endothelial cells retained the adhesion function and whether it played any role in the adhesion of freshly isolated human PBMCs to these cells. Moreover, the studies were also designed to determine whether blocking of SSAO/VAP-1 would have an impact on the level of adhesion between these two cell types. Adhesion assays were performed using cells labeled with the fluorescent dye Calcein-AM (Molecular Probes, OR, USA) as per the manufacturer's instructions. Briefly, rat lymph node high endothelial cells (HEC; isolation and culture was described in Ager, A. (1987) J. Cell Sci. 87: 133) were plated overnight in 96-well plates (2,000 cells/well). PBMCs (peripheral blood mononuclear cells) (1×10^7) were labeled with 1 ml of 10 μM Calcein-AM for 1 hr at 37° C., washed three times with RPMI, and added to the 96 well plates containing monolayers of HEC cells mock-transfected or transfected with full-length human SSAO/VAP-1 (60,000 PBMCs were plated per well containing 2,000 HEC cells). Adhesion was carried out for 3 hr at 37° C. Non-adherent cells were removed by washing three times with RPMI and fluorescence was measured in a fluorescence plate reader at an excitation wavelength of 485 nm and emission wavelength of 530 nm. Several controls were included, such as HEC cells and PBMCs (labeled and unlabeled) alone.
These studies were repeated using the adhesion assay as described above to evaluate the inhibitors of the invention. Adhesion blockers used included an anti-human VAP-1 monoclonal antibody (Serotec, Oxford, UK), neuramidase (a sialidase, because SSAO/VAP-1 is a sialoglycoprotein; Sigma), and several function-blocking antibodies to rat adhesion molecules (CD31-PECAM, CD54-ICAM-1, […]-P Selectin). […] Antibodies (10 μg/ml) and neuramidase (5 mU) were incubated with the HECs for 30 min at 37° C.; excess antibody was washed away prior to the addition of the labeled PBMCs. Small-molecule inhibitors were pre-incubated the same way at IC100 concentrations, but the amounts present in the supernatant were not washed away to preserve the IC100 concentration during the adhesion step.

Structure (SMILES) | final arthritis score ([1]; day 0-11, p=0.0046 vs PBS) | paw swelling ([1]; day 0-11, p=0.0060 vs PBS) | levels of TNFα mRNA in the paws (relative RT-PCR, TNFα:18S rRNA) ([1]; right hind paws at end of study) | development and severity of disease (EAE in C57BL/6 mice) | PGE2 production in paw exudate ([2]; 50 mg/kg oral 1 hour prior to carrageenan, 3 hours after injection, equivalent to dexamethasone) | paw volume ([2]; 50 mg/kg oral 1 hour prior to carrageenan, FIG. 11A) | paw swelling [2] | number of PBMCs adherent to SSAO/VAP-1 transfected HECs [3]
C=C(CNN)c1ccccc1 [Example 2, Hydrochloride] | clearly reduced | clearly reduced | able to reduce | clearly had a therapeutic effect | significantly reduce | reduces | clearly and significantly reduced | reduced
C=C(CNN)c1ccc(F)cc1.Cl [Example 8, N-[2-(4′-fluorophenyl)-allyl]-hydrazine Hydrochloride] |  |  |  |  |  |  | clearly and significantly reduced | reduced

— patent US20050096360A1, “Inhibitors of semicarbazide-sensitive amine oxidase (SSAO) and VAP-1 mediated adhesion useful for treatment of diseases” (priority 2003, published 2005)
